According to patent publication US8367659B2, “Oxazinyl isoflavonoid compounds, medicaments and use” (Marshall Edwards, Inc., priority 2007, dated 2013):

What was measured:
[1] = Free radical scavenging with DPPH; conditions: DPPH, 20 minutes, absorbance 517 nm; Table 4; read-out: Free radical scavenging ability EC50
How it was run: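 Compounds reacted with DPPH in ethanol for 20 min, screened at 100 μM, and absorbance at 517 nm compared with a DPPH-ethanol blank. IC50 was taken as the concentration giving a 0.6 absorbance change, with 1.2 units representing total scavenging.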

[2] = target: T1, GAL4-PPARγ fusion protein (Homo sapiens, UniProt P37231); test: PPARγ activity in transfected HEK293 cells (beta-lactamase reporter); format: cell-based; conditions: FIG. 13: 1 μM
T1 construct: host or cells: HEK293 (human embryonic kidney), stably transfected
T1 sequence (P37231 238-503 limits assumed): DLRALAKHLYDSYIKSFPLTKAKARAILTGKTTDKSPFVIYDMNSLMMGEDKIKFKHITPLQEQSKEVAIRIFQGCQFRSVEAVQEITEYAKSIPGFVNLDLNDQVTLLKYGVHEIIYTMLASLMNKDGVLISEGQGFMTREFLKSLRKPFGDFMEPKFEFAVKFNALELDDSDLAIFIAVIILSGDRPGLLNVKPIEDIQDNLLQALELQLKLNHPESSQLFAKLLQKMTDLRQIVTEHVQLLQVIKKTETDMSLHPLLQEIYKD
T1 sequence (P04386 1-147 partner limits assumed): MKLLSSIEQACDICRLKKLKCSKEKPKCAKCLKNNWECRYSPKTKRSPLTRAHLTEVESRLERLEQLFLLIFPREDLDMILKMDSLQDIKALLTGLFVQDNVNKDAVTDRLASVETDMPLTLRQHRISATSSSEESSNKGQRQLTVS
How it was run: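 HEK293 cells stably expressing GAL4-DBD/PPARγ-LBD fusion with beta-lactamase reporter, treated with compound at 1, 5 and 10 μM for 16-18 h. Beta-lactamase read via FRET substrate (2 h, room temperature), ex 409 nm, em 460/530 nm; background-subtracted emission ratio.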

CP70 = test: Anti-cancer activity, CP70 ovarian cancer cells (MTT); format: cell-based; conditions: 120 h, 5 days
HPAC = test: Anti-cancer activity, HPAC pancreatic cancer cells (MTT); format: cell-based; conditions: Homo sapiens, 120 h, 5 days
HT29 = test: Anti-cancer activity, HT-29 colon adenocarcinoma cells (MTT); format: cell-based; conditions: Homo sapiens, HT-29, 120 h, 5 days, read-out: IC50 μM, HT29 Colorectal
MDA-MB-468 = test: Anti-cancer activity, MDA-MB-468 breast cancer cells (MTT); format: cell-based; conditions: Homo sapiens, MDA-MB-468, 120 h, 5 days
MM200 = test: Anti-cancer activity, MM200 melanoma cells (MTT); format: cell-based; conditions: 120 h; 5 days, MTT
NCI-H460 = test: Anti-cancer activity, NCI-H460 large cell lung cancer cells (MTT); format: cell-based; conditions: Homo sapiens, NCI-H460, 120 h, 5 days, read-out: IC50 μM, NCI-H460 Lung (NSCLC)
[3] = tested on: neonatal foreskin fibroblasts (NFF); test: Toxicity to normal cells, neonatal foreskin fibroblasts; format: cell-based; conditions: Fibroblast; normal, non-transformed cells; read-out: IC50 μM, NFF Fibroblast
Protocol: (§1) IC50 values were determined for each cell line. Cells were seeded in 96-well plates at an appropriate cell density as determined from growth kinetics analysis and cultured for 5 days in the absence and presence of the test compounds. Cell proliferation was assessed after the addition of 20 μl of 3-4,5 dimethylthiazol-2,5-diphenyl tetrazolium bromide (MTT, 2.5 mg/ml in PBS, Sigma) for 3-4 hrs at 37° C. according to manufacturer's instructions. IC50 values were calculated from semi-log plots of % of control proliferation on the y-axis against log dose on the x-axis.
(§2) The neonatal foreskin fibroblasts (NFF) were a gift from Dr. Peter Parsons (Queensland Institute of Medical Research). Rabbit kidney (RK-13) cells were obtained from Miller Whalley (Macquarie University). Both cell lines were cultured in RPMI supplemented with 10% FCS(CSL, Australia), penicillin (100 U/ml), streptomycin ([…]), L-glutamine (2 mM) and sodium bicarbonate (1.2 g/L), and cultured at 37° C. in a humidified atmosphere of 5% CO2. IC50 values were determined as described above.

[4] = tested on: Rabbit kidney (RK-13) cells; test: Toxicity to normal cells, rabbit kidney (RK-13) cells; format: cell-based; conditions: Oryctolagus cuniculus, normal, non-transformed cells, read-out: IC50 μM, RK Rabbit Kidney
Protocol: as §1, §2

[5] = tested on: TNFα synthesis in RAW 264.7 murine macrophages; test: LPS-induced TNFα synthesis in RAW 264.7 murine macrophages; format: cell-based, mouse; conditions: 10 μM; relative to vehicle alone; FIG. 5
Protocol: The mouse macrophage cell line RAW 264.7 was cultured in DMEM supplemented with foetal calf serum (FCS), […] glutamine and 50 U/ml penicillin/streptomycin. Cells were treated with either test compound (in 0.025% DMSO) or vehicle alone, and added one hour before 50 ng/ml LPS. After incubation for 24 h, culture media was collected for PGE2 or TXB2 measurement by ELISA (Cayman Chemical), and TNFα measurement using an ELISA (Becton Dickinson). Test compounds were examined a concentration of 10 μM. […] Consequently, to assess the effect of test compounds on various analytes, cell viability was taken into consideration with the use of the formula: Actual effect of test compound=measured effect−(effect on cell viability×measured effect)

[6] = tested on: human umbilical vein smooth muscle cells (HUVSMC); test: Proliferation of human umbilical vein smooth muscle cells (MTT); format: cell-based; conditions: 10 μM; 10% FCS, 5 days; FIG. 8
Protocol: The effect of test compounds on human umbilical vein smooth muscle cells (HUVSMC) was examined. Cells were seeded into 96 well plates at a low seeding rate of 1.6×10^3 cells per well, and allowed to attach for 24 hours. The cells were then washed twice with medium without FCS and incubated in medium without FCS for 20 hours to serum starve them. Analogue was prepared in medium without FCS at 20 μM and added to the plates and incubated for one hour. Final analogue concentration was therefore 10 μM. The cells were then stimulated by adding medium +20% FCS, to give a final FCS concentration of 10%. The cells were incubated until the control cells i.e. those with FCS and no compound, were just confluent (5 days). An MTT assay was performed, and difference in absorbance in analogue treated cells from the control was calculated using the formula: test/control*100−100. Results
The effect of test compounds on human umbilical vein smooth muscle cells (HUVSMC), was examined. Cells, tissue explants from a neonate (HRI—passage 2), were seeded into 96 well plates at 1×10^3 cells per well, and allowed to attach for 24 hours. They were then washed twice and incubated in medium without foetal calf serum (FCS) for 24-48 hours to serum-starve them. Test compounds were prepared in medium without FCS and added to the plates and incubated for one hour. Medium with FCS was added to give a final concentration of 10% and the plates incubated for 4-5 days until the controls were just confluent.

cancer cell lines = test: Anti-cancer activity, cancer cell lines tested as a group (MTT); format: cell-based

EC50 [1] [µM]	PPARγ activation, increase in beta-lactamase activity over media only control [2]	IC50 (CP70) [µM]	IC50 (HPAC) [µM]	IC50 (HT29) [µM]	IC50 (MDA-MB-468) [µM]	IC50 (MM200) [µM]	IC50 (NCI-H460) [µM]	IC50 (cancer cell lines; read-out: most potent activity against the respective cell lines tested) [µM]	SMILES	IC50 [3] [µM]	IC50 [4] [µM]	mean change of LPS-induced TNFα synthesis [5]	effect on proliferation of HUVSMCs induced by FCS [6]	activity against CP70, HPAC and MM200 cell lines (cancer cell lines; CP70, HPAC and MM200)
26	PPARγ agonist activity	10.9 ± 1.5	12.4 ± 4	50.8 ± 1	14.9 ± 1	23.2 ± 1.1	17.8 ± 1.1	–	CCCN1COc2cc3c(cc2C1)C=C(c1ccc(O)cc1)C(CC)O3 (centres unmarked) [Compound 27, 4-(8-Ethyl-3-propyl-2,3,4,8-tetrahydrochromeno[6,7-e][1,3]oxazin-7-yl)phenol]	40.3 ± 1.2	14.5 ± 1	–	–	–
40	–	4.5	5.3	–	–	2.3	–	1 to 5	COCCCN1COc2cc3c(cc2C1)C=C(c1cccc(O)c1)CO3 [Compound 17, 3-(3-(3-Methoxypropyl)-2,3,4,8-tetrahydrochromeno[6,7-e][1,3]oxazin-7-yl)phenol]	55.9	5.5	greatest inhibition	significantly inhibited the proliferation	active
